# According to publication PMC3813957 (Cancer prevention research (Philadelphia, Pa.), 2013):
# Where two headings read alike, the source gives them in different places.
# Tests used:
# [1] = test system: methylnitrosourea-induced mammary cancers; experiment: Prevention of methylnitrosourea-induced mammary carcinogenesis; format: in vivo, female Sprague-Dawley rats; settings: for reduction of final tumor multiplicity: 6 mg/kg BW
# [2] = test system: established mammary cancers induced by methylnitrosourea; experiment: Therapy of established; format: in vivo, female Sprague-Dawley rats; settings: for reduction of average tumor size: vehicle group increased 250%
# [3] = test system: phosphorylated ERKs (T202/Y204); experiment: Biomarker study: Western blot of phosphorylated ERK in mammary cancers; format: in vivo, female Sprague-Dawley rats
# [4] = human, 150 mg, steady state; cited from earlier work
# [5] = cited from earlier work
# brain metastases = settings: nine patients, median dose 1500 mg weekly; cited from earlier work
# [6] = test system: transgenic model of ER negative breast cancer; settings: ref Lubet and Grubbs, unpublished data; cited from earlier work
# [7] = test system: carcinogen-induced urinary bladder model; settings: ref Lubet and Grubbs, unpublished data; cited from earlier work
# [8] = Serum pharmacokinetics of erlotinib and OSI-420 after gavage; settings: for concentration at 2 h / concentration at 4 h / concentration at 8 h / concentration at 24 h / concentration at 48 h / half-life / AUC(0-t) / Cmax / Tmax: female, Sprague-Dawley, rat, serum
# [9] = test system: MNU-induced rat mammary cancers; settings: varied doses; cited from earlier work
# [10] = Experiment C, weekly dosing at either 42 or 21 mg/kg BW
# [11] = rat 42 mg/kg BW vs human 150 mg
# [12] = rat effective daily dose (6 mg/kg BW) vs human
structure (smiles),measurement,setting,value
C#Cc1cccc(Nc2ncnc3cc(OCCOC)c(OCCOC)cc23)c1 [Erlotinib],tumor incidence and latency,"[1]; Experiment A, 6 mg/kg BW daily, one day on/one day off, or two days on/two days off, all three regimens vs controls P<.01",reductions of tumor incidence and increases in latency
same,reduction of final tumor multiplicity,"[1]; Experiment A, 2 days on/2 days off, vs vehicle controls P<.001",75%
same,reduction of final tumor multiplicity,"[1]; Experiment A, intermittent dosing (both schedules)",65–75%
same,tumor incidence and latency,"[1]; Experiment B, 6 mg/kg BW daily, 6 mg/kg BW two days on/two days off, or 42 mg/kg BW weekly, all three vs controls P<.01",reduced tumor incidence and increased tumor latency
same,reduction of tumor multiplicity,"[1]; Experiment B, 6 mg/kg BW daily, vs controls P<.005",85%
same,tumor incidence,[1]; [10],strongly inhibited
same,tumor multiplicity,[1]; [10],strongly inhibited
same,preventive activity (tumor incidence and multiplicity),"[1]; initial studies, 6 mg/Kg BW/day, data not shown",highly effective
same,tumor incidence and multiplicity,"[1]; initial studies, various daily doses up to 6 mg/kg BW/day",dose dependent decrease
same,decrease of tumor multiplicity,[1]; lower weekly dose 21 mg/kg BW,approximately 85%
same,reduction of average tumor size,[2]; 6 mg/kg BW daily for 6 weeks,40%
same,reduction of average tumor size,[2]; 42 mg/kg BW weekly for 6 weeks,25%
same,share of mammary tumors that decreased by 60% in size,"[2]; either daily (6 mg/kg BW) or weekly (42 mg/kg BW) dosing, 6 weeks",at least 50%
same,phosphorylation of ERK in cancers (Western blot),[3]; 6 mg/kg BW/day daily for 7 days,striking decrease
same,levels of phosphorylated ERK,[3]; rats treated daily/weekly (abstract),strongly decreased
same,phosphorylated ERK in cancers (Western blot),"[3]; single weekly dose 42 mg/kg BW, examined 6 days following the treatment",strong decrease
same,AUC0–24,[4],26500 ng·h/mL
same,Cmax,[4],1740 ng/mL
same,Tmax,[4],2.44 h
same,patients with moderate (grade 2) rash,[5]; 2000 mg/week,42%
same,severe (grade 3) rash or diarrhea,"[5]; weekly dosing, doses up to 2000 mg/week, any dose level",no severe (grade 3) rash or diarrhea
same,efficacy,brain metastases,significant efficacy was observed
same,efficacy of weekly treatment,[6],strong efficacy
same,efficacy of weekly treatment,[7],strong efficacy
same,concentration at 2 h,"[8]; oral, 6 mg/kg BW/day",708 ± 48 ng/mL
same,concentration at 4 h,"[8]; oral, 6 mg/kg BW/day",427 ± 19 ng/mL
same,concentration at 8 h,"[8]; oral, 6 mg/kg BW/day",277 ± 102 ng/mL
same,concentration at 24 h,"[8]; oral, 6 mg/kg BW/day",25 ± 9 ng/mL
same,concentration at 48 h,"[8]; oral, 6 mg/kg BW/day",0 ng/mL
same,half-life,"[8]; oral, 6 mg/kg BW/day, half-life, daily erlotinib (discussion)",5 to 6 h
same,concentration at 2 h,"[8]; oral, 42 mg/kg BW",1350 ± 96 ng/mL
same,concentration at 4 h,"[8]; oral, 42 mg/kg BW",1060 ± 184 ng/mL
same,concentration at 8 h,"[8]; oral, 42 mg/kg BW",1590 ± 259 ng/mL
same,concentration at 24 h,"[8]; oral, 42 mg/kg BW",470 ± 121 ng/mL
same,concentration at 48 h,"[8]; oral, 42 mg/kg BW",52 ± 11 ng/mL
same,half-life,"[8]; oral, serum half-life",≤ 8 h
same,AUC(0-t),"[8]; po, 6 mg/kg",4680 ng·h/mL
same,Cmax,"[8]; po, 6 mg/kg",708 ng/mL
same,Tmax,"[8]; po, 6 mg/kg",2 h
same,half-life,"[8]; po, 6 mg/kg, T1/2, rat, non-compartmental",4.61 h
same,AUC(0-t),"[8]; po, 42 mg/kg",28400 ng·h/mL
same,Cmax,"[8]; po, 42 mg/kg",1590 ng/mL
same,Tmax,"[8]; po, 42 mg/kg",8 h
same,half-life,"[8]; po, 42 mg/kg, T1/2, rat, non-compartmental",8.06 h
same,AUC relative to the human dose,[8]; rat 6 mg/Kg BW vs human 150 mg,< 20%
same,Cmax relative to human levels,[8]; rat 6 mg/Kg BW vs human 150 mg,< 50%
same,AUC compared with the human,[8]; [11],similar
same,Cmax compared with that achieved in humans,[8]; [11],similar
same,AUC less than in the human,[8]; [12],5 ×
same,Cmax lower than in the human,[8]; [12],approximately 60%
COc1cc2ncnc(Nc3ccc(F)c(Cl)c3)c2cc1OCCCN1CCOCC1 [gefitinib],tumor multiplicity,[9],dose dependent decrease
